Results as given in patent EP4786487A1, “PEPTIDE” (Peptidream Inc, priority 2023, dated 2025).
Positions of bridges follow the written chain, without caps; N, C: chain ends. Non-standard residues stand in square brackets, D forms with d. Residues, ends and D or L forms follow the SMILES beside them. Phe(4-COOH) = N[C@@H](Cc1ccc(C(=O)O)cc1)C(=O)O; Trp(7-aza) = N[C@@H](Cc1c[nH]c2ncccc12)C(=O)O; Gly(N(CH2)3COOH) = O=C(O)CCCNCC(=O)O; NMeF = CN[C@@H](Cc1ccccc1)C(=O)O; Gly(N(CH2)3NH2) = NCCCNCC(=O)O; NMeC = CN[C@@H](CS)C(=O)O; NMeA = CN[C@@H](C)C(=O)O; Dap = NC[C@H](N)C(=O)O; Sar = CNCC(=O)O

Assays:
GDF-11 = molecular target: T1, GDF-11 (Homo sapiens, UniProt O95390); experiment: HepG2 reporter gene assay, Evaluation Procedure (2): 2-concentrations assay, GDF-11 inhibition; type: cell-based; conditions: GDF-11 10 ng/mL; for inhibition at 0.03 µM: HepG2, peptide 30nM, read-out: GDF11 Inhibition 30nM; for inhibition at 0.1 µM: HepG2, peptide 100nM, read-out: GDF11 Inhibition 100nM
T1 construct: purchased R&D systems 1958-GD-G8/CF
T1 sequence (O95390 299-407): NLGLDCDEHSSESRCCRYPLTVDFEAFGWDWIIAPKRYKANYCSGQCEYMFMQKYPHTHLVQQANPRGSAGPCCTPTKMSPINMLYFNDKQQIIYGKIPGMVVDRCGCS
Experimental: (§1) The pGL3(CAGA)12-luc plasmid, namely a pGL3 vector (E1751, Promega) having a luciferase gene inserted downstream of a promoter sequence with 12 CAGA repeats attached, was transfected into HepG2 cell line (HB-8065, ATCC). The culture of HepG2 cell line (HB-8065, ATCC) was performed as in the Evaluation Procedure (1).
(§2) Myostatin (788-G8/CF, R&D systems) or GDF-11 (1958-GD-G8/CF, R&D systems) was added at a final concentration of 10 ng/mL. […] At this time, blank wells, in which neither myostatin, GDF-11, nor each peptide was added, were also prepared and incubated in a CO2 incubator (37°C, 5% CO2) for 20 to 24 hours.
(§3) The medium containing the cells was removed, and a mixture containing PBS (14190144, Thermo) and a chromogenic substrate One-Glo Luciferase Assay System (E6120, Promega) at a ratio of 1:1 was added to each well at 100 µL/well. This was stirred with a plate shaker for 5 min and transferred to a 384-well plate (3570, Corning) at a volume of 20 µL/well.
(§4) The plate was centrifuged at 1,000 × g for 1 min and the luminescence signal (700 nm luminescence) was measured using a plate reader (Envision 2104, PerkinElmer). Based on the measurement results, the inhibition rate at each peptide concentration was calculated. […]

Myostatin = molecular target: T2, Myostatin (Homo sapiens, UniProt O14793); experiment: HepG2 reporter gene assay, Evaluation Procedure (2): 2-concentrations assay, myostatin inhibition; type: cell-based; conditions: Myostatin 10 ng/mL, HepG2; for inhibition at 0.03 µM: peptide 30nM, read-out: Myostatin Inhibition 30nM; for inhibition at 0.1 µM: peptide 100nM, read-out: Myostatin Inhibition 100nM
T2 construct: active myostatin (also called mature myostatin) is a homodimer consisting of two C-terminal growth factor domains; purchased R&D systems 788-G8/CF
T2 sequence (O14793 267-375): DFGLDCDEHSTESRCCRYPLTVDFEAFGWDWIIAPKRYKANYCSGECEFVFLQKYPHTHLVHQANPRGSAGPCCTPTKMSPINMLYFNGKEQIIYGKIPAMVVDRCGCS
Experimental: as §1, §2, §3, §4

Row | inhibition at 0.03 µM (GDF-11) [%] | inhibition at 0.1 µM (GDF-11) [%] | inhibition at 0.03 µM (Myostatin) [%] | inhibition at 0.1 µM (Myostatin) [%] | Structure (SMILES)
1 | 0 | 11 | 56 | 83 | CC[C@H](C)[C@@H]1NC(=O)[C@H](Cc2ccccc2)N(C)C(=O)[C@H](Cc2ccc(O)cc2)NC(=O)[C@H](Cc2c[nH]c3ccccc23)NC(=O)[C@H](CCCNC(=N)N)NC(=O)[C@H](C)NC(=O)CSC[C@@H](C(=O)N[C@@H](CN)C(N)=O)NC(=O)[C@H](Cc2ccccc2)N(C)C(=O)[C@H](C)N(C)C(=O)[C@H](CC(C)C)NC(=O)[C@H](Cc2ccccc2)N(C)C(=O)[C@H](CCCNC(=N)N)NC(=O)[C@H](Cc2ccc(O)cc2)NC(=O)[C@H](Cc2ccc(O)cc2)NC(=O)CN(C)C1=O [Myostatin_000099_16Dap] ({CH2CO}-ARWY[NMeF]I[Sar]YYR[NMeF]L[NMeA][NMeF]C[Dap]-NH2; thioether N-15)
2 | 0 | 0 | 40 | 65 | CC[C@H](C)[C@@H]1NC(=O)[C@H](Cc2ccccc2)N(C)C(=O)[C@H](Cc2ccc(O)cc2)NC(=O)[C@H](Cc2c[nH]c3ccccc23)NC(=O)[C@H](C)NC(=O)CN(CCCC(=O)O)C(=O)CSC[C@H](C(=O)O)NC(=O)[C@H](Cc2ccccc2)N(C)C(=O)[C@H](C)N(C)C(=O)[C@H](CC(C)C)NC(=O)[C@H](Cc2ccccc2)N(C)C(=O)[C@H](CCCNC(=N)N)NC(=O)[C@H](Cc2ccc(O)cc2)NC(=O)[C@H](Cc2ccc(C(=O)O)cc2)NC(=O)CN(C)C1=O [Myostatin_99_Variant_06] ({CH2CO}-[Gly(N(CH2)3COOH)]AWY[NMeF]I[Sar][Phe(4-COOH)]YR[NMeF]L[NMeA][NMeF][dC]-OH; thioether N-15)
3 | 7 | 22 | 72 | 92 | CC[C@H](C)[C@@H]1NC(=O)[C@H](Cc2ccccc2)N(C)C(=O)[C@H](Cc2ccc(O)cc2)NC(=O)[C@H](Cc2c[nH]c3ccccc23)NC(=O)[C@H](CN)NC(=O)[C@H](C)NC(=O)CSC[C@H](C(=O)N[C@@H](CN)C(N)=O)NC(=O)[C@H](Cc2ccccc2)N(C)C(=O)[C@H](C)N(C)C(=O)[C@H](CC(C)C)NC(=O)[C@H](Cc2ccccc2)N(C)C(=O)[C@H](CCCNC(=N)N)NC(=O)[C@H](Cc2ccc(O)cc2)NC(=O)[C@H](Cc2ccc(O)cc2)NC(=O)CN(C)C1=O [Myostatin_99_Variant_08] ({CH2CO}-A[Dap]WY[NMeF]I[Sar]YYR[NMeF]L[NMeA][NMeF][dC][Dap]-NH2; thioether N-15)
4 | 0 | 11 | 65 | 90 | CC[C@H](C)[C@@H]1NC(=O)[C@H](Cc2ccccc2)N(C)C(=O)[C@H](Cc2ccc(O)cc2)NC(=O)[C@H](Cc2c[nH]c3ccccc23)NC(=O)[C@H](C)NC(=O)CN(CCCN)C(=O)CSC[C@H](C(=O)N[C@@H](CN)C(N)=O)NC(=O)[C@H](Cc2ccccc2)N(C)C(=O)[C@H](C)N(C)C(=O)[C@H](CC(C)C)NC(=O)[C@H](Cc2ccccc2)N(C)C(=O)[C@H](CCCNC(=N)N)NC(=O)[C@H](Cc2ccc(O)cc2)NC(=O)[C@H](Cc2ccc(O)cc2)NC(=O)CN(C)C1=O [Myostatin_99_Variant_09] ({CH2CO}-[Gly(N(CH2)3NH2)]AWY[NMeF]I[Sar]YYR[NMeF]L[NMeA][NMeF][dC][Dap]-NH2; thioether N-15)
5 | 11 | 29 | 60 | 89 | CC[C@H](C)[C@@H]1NC(=O)[C@H](Cc2ccccc2)N(C)C(=O)[C@H](Cc2ccc(O)cc2)NC(=O)[C@H](Cc2c[nH]c3ccccc23)NC(=O)[C@H](CN)NC(=O)[C@H](C)NC(=O)CSC[C@H](C(=O)N[C@@H](CN)C(=O)N[C@@H](CN)C(N)=O)NC(=O)[C@H](Cc2ccccc2)N(C)C(=O)[C@H](C)N(C)C(=O)[C@H](CC(C)C)NC(=O)[C@H](Cc2ccccc2)N(C)C(=O)[C@H](CCCNC(=N)N)NC(=O)[C@H](Cc2ccc(O)cc2)NC(=O)[C@H](Cc2ccc(O)cc2)NC(=O)CN(C)C1=O [Myostatin_99_Variant_10] ({CH2CO}-A[Dap]WY[NMeF]I[Sar]YYR[NMeF]L[NMeA][NMeF][dC][Dap][Dap]-NH2; thioether N-15)
6 | 8 | 12 | 51 | 76 | CC[C@H](C)[C@@H]1NC(=O)[C@H](Cc2ccccc2)N(C)C(=O)[C@H](Cc2ccc(O)cc2)NC(=O)[C@H](Cc2c[nH]c3ccccc23)NC(=O)[C@H](CN)NC(=O)CN(CCCN)C(=O)CSC[C@H](C(N)=O)NC(=O)[C@H](Cc2ccccc2)N(C)C(=O)[C@H](C)N(C)C(=O)[C@H](CC(C)C)NC(=O)[C@H](Cc2ccccc2)N(C)C(=O)[C@H](CCCNC(=N)N)NC(=O)[C@H](Cc2ccc(O)cc2)NC(=O)[C@H](Cc2ccc(O)cc2)NC(=O)CN(C)C1=O [Myostatin_99_Variant_13] ({CH2CO}-[Gly(N(CH2)3NH2)][Dap]WY[NMeF]I[Sar]YYR[NMeF]L[NMeA][NMeF][dC]-NH2; thioether N-15)

More lines, now with the values behind:

Row | Structure (SMILES) | inhibition at 0.03 µM (GDF-11) [%] | inhibition at 0.1 µM (GDF-11) [%] | inhibition at 0.03 µM (Myostatin) [%] | inhibition at 0.1 µM (Myostatin) [%]
7 | CC[C@H](C)[C@@H]1NC(=O)[C@H](Cc2ccccc2)N(C)C(=O)[C@H](Cc2ccc(O)cc2)NC(=O)[C@H](Cc2c[nH]c3ccccc23)NC(=O)[C@H](CCCNC(=N)N)NC(=O)[C@H](C)NC(=O)CSC[C@@H](C(N)=O)N(C)C(=O)[C@H](Cc2ccccc2)N(C)C(=O)[C@H](C)N(C)C(=O)[C@H](CC(C)C)NC(=O)[C@H](Cc2ccccc2)N(C)C(=O)[C@H](CCCNC(=N)N)NC(=O)[C@H](Cc2ccc(O)cc2)NC(=O)[C@H](Cc2ccc(O)cc2)NC(=O)CN(C)C1=O [Myostatin_000099_15meC] ({CH2CO}-ARWY[NMeF]I[Sar]YYR[NMeF]L[NMeA][NMeF][NMeC]-NH2; thioether N-15) | 0 | 4 | 50 | 75
8 | CC[C@H](C)[C@@H]1NC(=O)[C@H](Cc2ccccc2)N(C)C(=O)[C@H](Cc2ccc(O)cc2)NC(=O)[C@H](Cc2c[nH]c3ccccc23)NC(=O)[C@H](CCCNC(=N)N)NC(=O)[C@H](C)NC(=O)CSC[C@@H](C(=O)N[C@H](CCC(=O)O)C(N)=O)NC(=O)[C@H](Cc2ccccc2)N(C)C(=O)[C@H](C)N(C)C(=O)[C@H](CC(C)C)NC(=O)[C@H](Cc2ccccc2)N(C)C(=O)[C@H](CCCNC(=N)N)NC(=O)[C@H](Cc2ccc(O)cc2)NC(=O)[C@H](Cc2ccc(O)cc2)NC(=O)CN(C)C1=O [Myostatin_000099_16de] ({CH2CO}-ARWY[NMeF]I[Sar]YYR[NMeF]L[NMeA][NMeF]C[dE]-NH2; thioether N-15) | 0 | 3 | 50 | 82
9 | CC[C@H](C)[C@@H]1NC(=O)[C@H](Cc2ccccc2)N(C)C(=O)[C@H](Cc2ccc(O)cc2)NC(=O)[C@H](Cc2c[nH]c3ccccc23)NC(=O)[C@H](C)NC(=O)[C@H](C)NC(=O)CSC[C@H](C(=O)N[C@@H](CN)C(N)=O)NC(=O)[C@H](Cc2ccccc2)N(C)C(=O)[C@H](C)N(C)C(=O)[C@H](CC(C)C)NC(=O)[C@H](Cc2ccccc2)N(C)C(=O)[C@H](CCCNC(=N)N)NC(=O)[C@H](Cc2ccc(O)cc2)NC(=O)[C@H](CCCCN)NC(=O)CN(C)C1=O [Myostatin_99_Variant_11] ({CH2CO}-AAWY[NMeF]I[Sar]KYR[NMeF]L[NMeA][NMeF][dC][Dap]-NH2; thioether N-15) | 22 | 26 | 75 | 94
10 | CC[C@H](C)[C@@H]1NC(=O)[C@H](Cc2ccccc2)N(C)C(=O)[C@H](Cc2ccc(O)cc2)NC(=O)[C@H](Cc2c[nH]c3ncccc23)NC(=O)[C@H](C)NC(=O)CN(CCCC(=O)O)C(=O)CSC[C@H](C(N)=O)NC(=O)[C@H](Cc2ccccc2)N(C)C(=O)[C@H](C)N(C)C(=O)[C@H](CC(C)C)NC(=O)[C@H](Cc2ccccc2)N(C)C(=O)[C@H](CCCNC(=N)N)NC(=O)[C@H](Cc2ccc(C(=O)O)cc2)NC(=O)[C@H](Cc2ccc(O)cc2)NC(=O)CN(C)C1=O [Myostatin_99_Variant_14] ({CH2CO}-[Gly(N(CH2)3COOH)]A[Trp(7-aza)]Y[NMeF]I[Sar]Y[Phe(4-COOH)]R[NMeF]L[NMeA][NMeF][dC]-NH2; thioether N-15) | 0 | 1 | 41 | 73
